According to patent publication US20250213561A1, “SELECTIVE HYPOTHALAMUS PERMEABLE HDAC6 INHIBITORS FOR TREATMENT OF LEPTIN-RESISTANT OBESITY” (The Children’s Medical Center Corporation, priority 2022, published 2025):
“Also recorded” adds a separate entry of the source.

Assays:
HDAC6-KO DIO mice = assay: Chronic treatment of DIO WT versus HDAC6 KO mice; type: in vivo; settings: DIO mice, 3 weeks; ACY775 10, ACY738 50, Tubastatin A 25 mg/kg/day i.p.
[1] = in vivo; cited from earlier work
[2] = Brain/plasma ratio and brain or hypothalamus penetration; settings: in vivo
DIO mice [3] = assay: Chronic treatment of DIO mice (body weight, food intake, DEXA, glucose homeostasis); type: in vivo; settings: for body weight: 3 weeks i.p., ricolinostat 50 mg/kg, bavarostat 10 mg/kg, citarinostat 25 mg/kg; for food intake: 3 weeks treatment
Procedure: DIO mice were treated with ACY775 (10 mg/kg/day, i.p.) for 3 weeks. Daily body weight (g) of DIO mice treated with vehicle (n=17) or ACY775 (n=17) during 3 weeks of treatment was determined. Daily food intake (g) during 3 weeks of vehicle or ACY775 treatment was assessed. 24 hours' food intake per mouse during the first week of vehicle or ACY775 treatment was determined. Serum leptin (ng/ml) levels after 3 weeks of vehicle (n=24) or ACY775 (n=24) treatment was assessed. Lean mass (g), fat mass (g) and fat percentage (%) after 3 weeks of vehicle (n=17) or ACY775 (n=17) treatment measured by Dual-energy X-ray absorptiometry (DEXA) scan. DEXA scans were performed in two different cohorts. Glucose tolerance test (GTT) after 1 week of vehicle (n=33) or ACY775 (n=26) treated DIO mice was assessed. Area of curve (AOC) analysis for GTT was performed. Blood glucose (mg/dl) levels after 1 week of vehicle (n=17) or ACY775 (n=16) were assessed in treated DIO mice. Insulin tolerance test (ITT) was performed after 2 weeks of vehicle (n=31) or ACY775 (n=21) treatment of DIO mice. Serum insulin (ng/ml) levels were measured after 3 weeks of vehicle (n=22) or ACY775 (n=21) in treated DIO mice. A homeostatic model assessment of insulin resistance (HOMA-IR) was analyzed after 3 weeks of vehicle (n=14) or ACY775 (n=13) treated DIO mice.
Food intake was analyzed hourly until 3:00 am. […] DEXA scans were performed in two different cohorts.
DIO mice then were treated with ricolinostat (50 mg/kg, i.p.) for 3 weeks. Daily body weight (g), daily food intake (g), serum leptin (ng/ml) levels after 3 weeks of vehicle (n-8) or ricolinostat (n=8) treatment, lean mass (g); fat mass and fat percentage (%) after 3 weeks of vehicle (n=16) or ricolinostat (n=17) treatment measured by DEXA scan were determined.
Blood glucose (mg/dl) levels were measured after 1 week of vehicle (n=16) or ricolinostat (n=16) treated DIO mice. GTT after 1 week of vehicle (n=17) or ricolinostat (n=16) treatment of DIO mice was assessed. AOC analysis for GTT was performed. ITT after 2 weeks of vehicle (n=17) or ricolinostat (n=16) treated DIO mice was measured. Serum insulin (ng/ml) levels after 3 weeks of vehicle (n=8) or ricolinostat (n=8) treatment were measured in DIO mice. Liver sections from 3 weeks of vehicle or ricolinostat treated DIO mice were stained by H&E.
DIO mice then were treated with bavarostat (10 mg/kg, i.p.) for 3 weeks and daily body weight (g) of DIO mice treated with Veh (n=9) or bavarostat (n=9) measured during the three weeks of treatment period. Daily food intake (g) during 3 weeks of Veh or bavarostat treatment was also measured.
ACY1083 was administered to DIO mice as described in Example 3.

HDAC6 [4] = biological target: HDAC6 (Mus musculus (Mouse), UniProt Q9Z2V5); assay: Ac-tubulin immunoblotting of tissues (HDAC6 inhibition in hypothalamus and brain regions); type: in vivo, mice; settings: for HDAC6 inhibition in other brain regions: cerebrum, frontal lobe, temporal lobe, brainstem; for HDAC6 inhibition in the hypothalamus: mouse, in vivo
p-STAT3^Tyr705 = assay: Leptin-stimulated hypothalamic STAT3 Tyr705 phosphorylation in DIO mice; type: in vivo; settings: 45 minutes after leptin 1 mg/kg i.p.
Procedure: DIO mice were pretreated with ACY775 (10 mg/kg/day, i.p.) or vehicle for 3 days, which was followed by a last injection of ACY775 (or vehicle) in the morning of fourth day. 6 hours later mice were injected with saline or leptin (1 mg/kg, i.p.) and hypothalamus were extracted after 45 minutes following the leptin injection. Representative immunoblots for STAT3^Tyr705 phosphorylation and total STAT3 from the hypothalamus. Quantification of the ratio of p-STAT3^Tyr705 to total-STAT3 signal in the immunoblots. The results were reproduced in three independent experiments. The results were analyzed hourly.
DIO mice were pretreated with ACY775 (10 mg/kg/day, i.p.) or vehicle for 3 days, which was followed by a last injection of ACY775 (or vehicle) in the morning of fourth day. 6 hours later mice were injected with saline or leptin (1 mg/kg, i.p.) and the hypothalamus were extracted after 45 minutes following the leptin injection.
6 hours later mice were injected with saline or leptin (1 mg/kg, i.p.) and hypothalamus were extracted after 45 minutes following the leptin injection. Immunoblots for STAT3^Tyr705 phosphorylation and total STAT3 from the hypothalamus were made to quantify the ratio of p-STAT3^Tyr705 to total-STAT3 signal in the immunoblots. The results were reproduced in two independent experiments.
DIO mice were pretreated with ricolinostat (50 mg/kg/day, i.p.) or vehicle 3 days, which was followed by a last injection of ricolinostat (or vehicle) in the morning of fourth day. 6 hours later mice were injected with saline or leptin (1 mg/kg, i.p.) and the hypothalamus were extracted after 45 minutes following the leptin injection. Immunoblots were performed for STAT3^Tyr705 phosphorylation and total STAT3 from the hypothalamus. The ratio of p-STAT3^Tyr705 to total STAT3 signal in the immunoblots was quantified.

HDAC6 [5] = assay: Ac-tubulin immunoblotting in HEK293 cells; type: cell-based
DIO mice [6] = assay: Acute leptin co-treatment in DIO mice (body weight, food intake 15 h); type: in vivo; settings: for body weight, agent alone: ACY775 10 mg/kg, ricolinostat 25 mg/kg
Procedure: DIO mice were pretreated with ACY775 (10 mg/kg/day, i.p.) or vehicle for 3 days, which was followed by co-treatment with ACY775 (or vehicle) and leptin (1 mg/kg, i.p.) (or saline) (n=9 for each group), % change in body weight 15 h after leptin treatment, food intake (g) during the 15 h period after leptin treatment. The results in were reproduced in two independent experiments.
Diet induced obese (DIO) mice were pretreated with ACY775 (10 mg/kg/day, i.p.) or vehicle for 3 days, which was followed by co-treatment with ACY775 (or vehicle) and leptin (1 mg/kg, i.p.) (or saline) (n=9 for each group). Mice were evaluated for % change in body weight 15 h after leptin treatment, and food intake (g) during the 15 h period after leptin treatment.
DIO mice were pretreated with ricolinostat (25 mg/kg/day, i.p.) or vehicle for 3 days, which was followed by co-treatment with ricolinostat (or vehicle) and leptin (1 mg/kg, i.p.) (or saline) (n=32 for each group). Change in body weight 15 h after leptin treatment, and food intake (g) during the 15 h period after leptin treatment were determined. The results were reproduced in two independent experiments.

[7] = test system: ACY775-responsive DMH neurons; assay: Chemogenetic (hM3Dq) activation of ACY775-responsive DMH neurons; type: in vivo; settings: ACY775-induced hM3Dq TRAP2 DIO mice
Procedure: Next, the ACY775-responsive DMH neurons were chemogenically activated to investigate whether activation of these neurons would be sufficient to reduce the food intake and the bodyweight. Adeno-associated virus (AAV) carrying Cre-dependent hM3Dq-DREADD fused to mCherry transgene (AAV-DIO-hM3Dq-mCherry) was injected bilaterally into the DMH of TRAP2 DIO mice. Four weeks after injections, a single dose of ACY775 (10 mg/kg, i.p.) or vehicle was injected to induce c-fos expression. Subsequently, 4-OHT injection was performed after 5 h to activate c-fos driven Cre in the fasted DIO mice. The mCherry signal was expressed only in ACY775-treated TRAP2 DIO mice and was absent in vehicle-treated TRAP2 DIO mice.
Next, both AAV-DIO-hM3Dq-mCherry- and ACY775-injected, and vehicle-treated TRAP2 DIO mice with saline were treated for 3 days and with clozapine N-oxide (CNO) for 4 days. […] The blood glucose levels at the end of saline and CNO treatment was also measured. […] Blood glucose lowering effect of CNO was absent compared in Veh-induced TRAP2 DIO mice and in all the saline-treated mice.

Chain of HDAC6 (Mus musculus (Mouse), UniProt Q9Z2V5) (Q9Z2V5 whole entry): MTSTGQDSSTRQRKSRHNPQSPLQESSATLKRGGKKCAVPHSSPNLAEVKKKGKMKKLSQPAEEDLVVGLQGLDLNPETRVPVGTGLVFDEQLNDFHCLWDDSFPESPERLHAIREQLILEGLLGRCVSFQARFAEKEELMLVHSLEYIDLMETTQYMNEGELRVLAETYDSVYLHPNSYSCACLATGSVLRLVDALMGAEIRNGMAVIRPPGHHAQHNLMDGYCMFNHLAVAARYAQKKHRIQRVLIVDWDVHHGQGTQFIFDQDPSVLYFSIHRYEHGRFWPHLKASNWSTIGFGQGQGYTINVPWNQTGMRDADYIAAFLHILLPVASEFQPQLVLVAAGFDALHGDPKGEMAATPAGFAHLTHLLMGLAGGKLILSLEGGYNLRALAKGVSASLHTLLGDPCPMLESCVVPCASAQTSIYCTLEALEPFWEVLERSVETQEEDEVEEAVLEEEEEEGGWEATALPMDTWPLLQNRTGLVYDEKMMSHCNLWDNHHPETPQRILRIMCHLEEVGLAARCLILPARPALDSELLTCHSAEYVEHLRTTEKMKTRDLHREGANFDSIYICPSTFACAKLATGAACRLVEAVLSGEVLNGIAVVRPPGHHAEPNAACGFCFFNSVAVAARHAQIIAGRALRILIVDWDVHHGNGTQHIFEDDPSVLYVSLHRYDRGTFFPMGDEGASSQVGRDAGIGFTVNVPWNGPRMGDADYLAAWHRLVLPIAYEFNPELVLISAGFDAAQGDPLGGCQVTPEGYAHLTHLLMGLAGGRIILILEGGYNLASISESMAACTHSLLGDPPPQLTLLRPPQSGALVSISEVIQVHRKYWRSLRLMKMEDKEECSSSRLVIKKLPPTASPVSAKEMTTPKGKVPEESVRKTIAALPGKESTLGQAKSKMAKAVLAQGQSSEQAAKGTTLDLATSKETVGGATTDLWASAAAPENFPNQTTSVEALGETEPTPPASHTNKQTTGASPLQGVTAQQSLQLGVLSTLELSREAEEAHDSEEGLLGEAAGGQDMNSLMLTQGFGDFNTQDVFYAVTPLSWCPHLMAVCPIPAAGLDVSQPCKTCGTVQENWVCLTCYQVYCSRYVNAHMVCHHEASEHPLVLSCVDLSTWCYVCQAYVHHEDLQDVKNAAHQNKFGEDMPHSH

| Molecule | brain penetrance / BBB permeability [1] | penetrance into the hypothalamus [2] | body weight (DIO mice [3]; DIO mice) | food intake (DIO mice [3]; DIO mice) | HDAC6 inhibition in other brain regions (HDAC6 [4]) | leptin-stimulated hypothalamic p-STAT3^Tyr705 (p-STAT3^Tyr705) | body weight, agent alone (DIO mice [6]; 15 h, leptin 1 mg/kg i.p.) | food intake, agent alone (DIO mice [6]; 15 h period) | other results |
| --- | --- | --- | --- | --- | --- | --- | --- | --- | --- |
| CN(Cc1ccc(C(=O)NO)cc1F)CC12CC3CC(CC(C3)C1)C2 [bavarostat, 4-(((((3r,5r,7r)-adamantan-1-yl)methyl)(methyl)amino)methyl)-3-fluoro-N-hydroxybenzamide] | high brain penetrance | high penetrance of the hypothalamus | statistically significantly effective in reducing food intake and body weight | Appetite was initially suppressed but then rose over time | – | – | – | – | body weight, WT versus HDAC6 KO (HDAC6-KO DIO mice): treatment of wild type mice but not HDAC6 Knockout animals with bavarostat caused weight loss; also recorded: equivalent to vehicle in HDAC-6 KO mice; food intake and total body fat mass (summary) (DIO mice [3]; high fat diet induced mice): significant reduction of food intake and total body fat mass |
| O=C(CCCCCCNC(=O)c1cnc(N(c2ccccc2)c2ccccc2Cl)nc1)NO [citarinostat] | good brain penetrance | – | not effective in reducing body weight | – | inhibits HDAC6 in other brain regions | – | – | – | HDAC6 inhibition in the hypothalamus (HDAC6 [4]): does not show HDAC6 inhibition in the AGP neurons in the hypothalamus; HDAC6 inhibition in the hypothalamus (HDAC6 [4]; listed as Citarinostat): but not in the hypothalamus |
| O=C(CCCCCCNC(=O)c1cnc(N(c2ccccc2)c2ccccc2)nc1)NO [ricolinostat] | poor BBB permeability | neither of which have high penetrance into the hypothalamus | minimal decrease in bodyweight for the first couple of days without creating any meaningful or significant decreases; also recorded: does not reduce body weight | reduced transitionally during the first 2-3 days of treatment but then rebounded | – | did not significantly increase STAT3^Tyr705 phosphorylation | did not decrease the bodyweight | had no effect on the food intake | tubulin acetylation (HDAC6 inhibitor activity in cells) (HDAC6 [5]): confirmation of Ricolinstat's HDAC6 inhibitory activity; brain/plasma ratio [1]: < 0.01; insulin tolerance test (ITT) (DIO mice [3]; DIO mice): did not improves; hepatic steatosis (H&E liver) (DIO mice [3]; DIO mice, 3 weeks): no decrease in the hepatic steatosis; glucose tolerance test (GTT) (DIO mice [3]; DIO mice, after 1 week): did not improves glucose tolerance; serum insulin levels (DIO mice [3]; DIO mice, after 3 weeks): did not reduce insulin levels; body weight, leptin after pre-treatment with inhibitor (DIO mice [6]; 3 days pre-treatment, leptin 1 mg/kg i.p., 15 h): did not reduce the body weight; food intake, leptin together with inhibitor (DIO mice [6]; leptin 1 mg/kg i.p., 15 h period): had no effect on the food intake |
| leptin: peptide hormone that serves as the afferent signal in a negative feedback loop regulating food intake and body weight | – | – | – | – | – | did not significantly increase STAT3^Tyr705 phosphorylation | did not significantly alter their bodyweight; also recorded: did not change their bodyweight | did not significantly change the food intake | – |
| C[N+]1([O-])CCN(C2=Nc3cc(Cl)ccc3Nc3ccccc32)CC1 [CNO, clozapine N-oxide] | – | – | – | – | – | – | – | – | blood glucose levels [7]: significantly decreased blood glucose levels; bodyweight and food intake ([7]; CNO 4 days): significant reduction in bodyweight and food intake |
| CC1CCC(C(C)(C2CCC(C)CC2)C2CCC(C(C)C(C)CCCCC(C)C(C)C)CC2)CC1 (stereo not drawn) [ACY257] | – | – | as effective as ACY775 in reducing body weight | – | does not inhibit HDAC6 in other brain regions | – | – | – | – |
